Data published in article PMC7516806, “Hybrid Antimicrobial Peptide Targeting Staphylococcus aureus and Displaying Anti-infective Activity in a Murine Model” (Frontiers in Microbiology, 2020).
Positions of bridges follow the written chain, without caps; N, C: chain ends. Residues, ends and D or L forms follow the SMILES beside them.

How the values were obtained:
[1] = system: E. coli 25922; assay: MIC, modified microtiter dilution; type: cell-based, Escherichia coli; conditions: MHB, 2–7 × 10^5 CFU/ml, 37°C, 24 h, lowest concentration with no turbidity, at least three independent repeats
Source text: (§1) The experiment was repeated at least three times independently.

[2] = system: E. coli UB1005; assay: MIC, modified microtiter dilution; type: cell-based, Escherichia coli; conditions: MHB, 2–7 × 10^5 CFU/ml, 37°C, 24 h, no turbidity, at least three independent repeats
Source text: as §1

[3] = system: S. pullorum 7913; assay: MIC, modified microtiter dilution; type: cell-based, Salmonella pullorum; conditions: MHB, 2–7 × 10^5 CFU/ml, 37°C, 24 h, no turbidity, at least three independent repeats
Source text: as §1

[4] = system: L. plantarum 8014; assay: MIC, modified microtiter dilution; type: cell-based, Lactobacillus plantarum; conditions: 2–7 × 10^5 CFU/ml, 37°C, 24 h, no turbidity, at least three independent repeats
Source text: as §1

[5] = system: S. aureus 29213; assay: MIC in the presence of physiological salts; type: cell-based, Staphylococcus aureus; conditions: three independent repeats, unit not given in Table 4
Method: as §1
The MIC of peptides was determined in the presence of salts at physiological concentrations (150 mM NaCl, 4.5 mM KCl, 6 μM NH4Cl, 8 μM ZnCl2, 1 mM MgCl2, 2 mM CaCl2, and 4 μM FeCl3) as described previously ([Dong et al., 2014]). All experiments were performed three times independently.

[6] = system: Staphylococcus aureus 29213; assay: Bacterial resistance development, serial passaging; type: cell-based; conditions: serial passage at sub-MIC for 15 days
Source text: Staphylococcus aureus 29213 was employed to assess the development of resistance by the serial passaging method, as previously described ([Lyu et al., 2017]). Minimum inhibitory concentration testing was first conducted for all of the compounds to be tested, as described above. S. aureus was harvested from 96-well plates of sub-MIC levels, diluted in MHB to a concentration of 2–7 × 10^5 CFU/mL, and then subjected to MIC determination for up to 15 days. The change in MIC values determines the development of antibiotic resistance in S. aureus.

[7] = system: lipoteichoic acid (LTA) from S. aureus; assay: LTA binding, BODIPY-TR-cadaverine displacement; set-up: species or system Staphylococcus aureus; conditions: comparison among peptides, BC displacement
Method: Peptides binding to LTA were assayed using the BC (Sigma, United States) displacement method ([Zorko and Jerala, 2008]). The final concentration of 50 μg/mL LTA from S. aureus was incubated with 5 μg/mL BC in Tris-HCl buffer (50 mM, pH 7.4) for 4 h in a shaking incubator at 37°C. The peptides were then serially diluted in Tris–HCl buffer, and an equal volume solution was added to the 96-well plates. The fluorescence was measured (excitation λ = 580 nm, emission λ = 620 nm) on a spectrofluorophotometer (Infinite 200 Pro, Tecan, China). The experiment was conducted three times independently.

[8] = system: S. aureus 29213; assay: Cytoplasmic membrane depolarization, diSC3-5; type: cell-based, Staphylococcus aureus; conditions: 0.4 μM diSC3-5, 100 mM KCl, ex 622 nm, em 670 nm
Method: The dye diSC3-5 was employed to assay cytoplasmic membrane depolarization activities ([Shao et al., 2018]). S. aureus 29213 was diluted to an OD600 = 0.05 after washing three times with buffer (5 mM HEPES, 5 mM glucose, pH 7.4) when the bacteria grew to mid-log phase. Then, diSC3-5 at a final concentration of 0.4 μM was added into the medium and incubated for 1–1.5 h. The final concentration of 100 mM KCl was then added to the solution for 15 min. The peptides were added to 12-well plates, which were filled with 2 mL of cell suspension. An F-4500 fluorescence spectrophotometer (Hitachi, Japan) was employed to measure the fluorescence value at an excitation wavelength of 622 nm and an emission wavelength of 670 nm. Maximal augmentation was monitored, and the fluorescence of the mixture of bacteria and dye served as the blank control.

[9] = system: S. aureus 29213; assay: Mouse model of subcutaneous infection; type: in vivo, ICR mice; conditions: 80× MIC
Method: To assess the antimicrobial activity of the peptide in vivo, a mouse model of subcutaneous infection was used ([Huang et al., 2011a]; [Omolo et al., 2017]). Female Institute for Cancer Research (ICR) mice (SPF, 20–25 g) were purchased from WeiTonglihua Co., Ltd. (Beijing, China), with eight animals per group. The mice were shaved on their backs and disinfected. S. aureus 29213 (100 μL) at a concentration of 1 × 10^8 CFU/mL was injected into the superficial skin of the mice. The mice were divided into four groups (n = 4), as follows: S. aureus + saline, S. aureus + S2 (80× MIC, 100 μL), S. aureus + vancomycin (Van) (80× MIC, 100 μL), and saline. S2, vancomycin, and saline were injected at the same site 1 h after infection. The mice were monitored over 24 h in an environmentally controlled room at 25 ± 1°C and 55 ± 5% relative humidity with a 12 h light/dark cycle.
To image the infected skin tissues, the mice were euthanized 24 h after the injection of S. aureus. Samples were fixed in 4% buffered paraformaldehyde and subjected to hematoxylin/eosin (HE) staining. The antimicrobial activity in vivo was determined by colony counting of infected skin samples. Skin homogenates were serially diluted in saline and incubated at 37°C for 24 h.

[10] = Systemic toxicity after intraperitoneal injection; type: in vivo, mice; conditions: 100 μL
Method: The mice were inoculated by intraperitoneal injection with 100 μL of S2 (80 MIC), and saline was used as the control. Signs of animal distress and changes in body weight were closely monitored. After five days, all the mice were euthanized, and the blood biochemistry parameters were determined ([Mishra et al., 2019]).

[11] = mean, intraperitoneal 80 MIC, after five days

SMILES: CC(C)C[C@H](NC(=O)[C@H](CC(C)C)NC(=O)[C@H](Cc1c[nH]c2ccccc12)NC(=O)[C@H](Cc1c[nH]c2ccccc12)NC(=O)[C@H](Cc1c[nH]c2ccccc12)NC(=O)[C@H](CCCNC(=N)N)NC(=O)[C@@H]1CSSC[C@H](N)C(=O)N[C@@H](C)C(=O)N[C@@H](CO)C(=O)N[C@@H](Cc2ccc(O)cc2)C(=O)N[C@@H](Cc2ccccc2)C(=O)N1)C(N)=O [Peptide S2] (H-CASYFCRWWWLL-NH2; disulfide 1-6; N-terminus assumed)
- MIC E. coli 25922 [1]: >64 µM
- MIC E. coli UB1005 [2]: >64 µM
- MIC S. pullorum 7913 [3]: >64 µM
- MIC L. plantarum 8014 [4]: >64 µM
- MIC against S. aureus 29213, FeCl3 ([5]; 4 μM FeCl3): 16 µM
- MIC against S. aureus 29213, NH4Cl ([5]; 6 μM NH4Cl): 8 µM
- MIC against S. aureus 29213, ZnCl2 ([5]; 8 μM ZnCl2): 4 µM
- MIC against S. aureus 29213, MgCl2 ([5]; 1 mM MgCl2): 8 µM
- MIC against S. aureus 29213, CaCl2 ([5]; 2 mM CaCl2): 16 µM
- MIC against S. aureus 29213, KCl ([5]; 4.5 mM KCl): 8 µM
- MIC against S. aureus 29213, NaCl ([5]; 150 mM NaCl): 8 µM
- change in MIC value, 15th day versus first day [6]: remained almost constant
- relative binding capacity to LTA [7]: stronger binding capacity to LTA than S1 and S3
- cytoplasmic membrane depolarization (diSC3-5 fluorescence) [8]: rapid fluorescence intensity increase
- decrease in bacterial colonies at infection site versus control group ([9]; 100 μL injected at the infected site 1 h after infection, skin homogenate colony count after 24 h, P < 0.01): 10 fold
- ulceration (lesion) size, length × width ([9]; 100 μL, 1 h after infection): significantly reduced ulceration sizes
- blood parameters versus saline treatment group ([10]; intraperitoneal, 80 MIC, after five days): unaltered
- clinical signs of toxicity ([10]; intraperitoneal, 80 MIC, monitored five days): no clinical signs indicative of toxicity
- blood Cl- [10, 11]: 111.25 mmol/L
- blood Creatinine [10, 11]: 12.4 µM
- blood Glucose [10, 11]: 10.17 mmol/L
- blood I.Phos. [10, 11]: 2.335 mmol/L
- blood K+ [10, 11]: 5.84 mmol/L
- blood Na+ [10, 11]: 149 mmol/L
- blood Urea [10, 11]: 9.43 mmol/L
